The series in a line: Solvent solubility evaluation of aromatic ring-containing compound in PGMEA. Type of series: physicochemical. The conditions noted are these: 1 g compound and 1 mL PGMEA stirred for 24 hours at 25° C. The protocol:
<Solvent Solubility Evaluation>
1 g of an aromatic ring-containing compound and 1 mL of propylene glycol monomethyl ether acetate (PGMEA) were stirred for 24 hours at 25° C. and then the aromatic ring-containing compound was mixed with PGMEA uniformly and evaluated by the following criteria.
A: 50% by mass or more of an aromatic ring-containing compound were dissolved in PGMEA.
B: 30% by mass or more and less than 50% by mass of an aromatic ring-containing compound were dissolved in PGMEA.
C: 5% by mass or more and less than 30% by mass of an aromatic ring-containing compound were dissolved in PGMEA.
D: The amount of an aromatic ring-containing compound dissolved in PGMEA was less than 5% by mass.
The solvent solubility of an aromatic ring-containing compound was measured in the same manner as described above.

These results are taken from patent US9902794B2, “Curable composition, optical component and compound” (FUJIFILM Corporation, priority 2014, dated 2018).

Structures are written as SMILES.

On to `C=CC(=O)OCCOc1ccc(C2(c3ccc4sc(-c5ccc6cc(OCCOC(=O)C=C)ccc6c5)nc4c3)c3ccccc3-c3cc4ccccc4cc32)cc1` (stereo not drawn) [Compound J], for which the Solvent solubility evaluation entry is “A (50% by mass or more of an aromatic ring-containing compound were dissolved in PGMEA)”.
The entry for `C=CC(=O)OCCOc1ccc(C2(c3ccc(OCCOC(=O)C=C)cc3)c3ccccc3-c3cc4sc(-c5ccccc5)nc4cc32)cc1` [Compound G] is “B (30% by mass or more and less than 50% by mass of an aromatic ring-containing compound were dissolved in PGMEA)”; for `C=CC(=O)OCCOc1ccc(-c2nc3ccc(C4(c5ccc6nc(-c7ccc(OCCOC(=O)C=C)cc7)sc6c5)c5ccccc5-c5ccccc54)cc3s2)cc1` [Compound 7] it is “A (50% by mass or more of an aromatic ring-containing compound were dissolved in PGMEA)”.
The entry for `C=CC(=O)OCCOc1ccc2c(c1)-c1cc3ccccc3cc1C2(c1ccc(-c2nc3ccccc3s2)cc1)c1ccc(OCCOC(=O)C=C)c2ccccc12` (stereo not drawn) [Compound 2] is “A (50% by mass or more of an aromatic ring-containing compound were dissolved in PGMEA)”; for `C=CC(=O)OCCOc1ccc2c(c1)C(c1ccc(-c3nc4ccccc4o3)cc1)(c1ccc3cc(OCCOC(=O)C=C)ccc3c1)c1cc3ccccc3cc1-2` (stereo not drawn) [Compound D] it is “B (30% by mass or more and less than 50% by mass of an aromatic ring-containing compound were dissolved in PGMEA)”; for `C=CC(=O)OCCOc1ccc2cc(-c3nc4ccc(C5(c6ccc7nc(-c8ccc9cc(OCCOC(=O)C=C)ccc9c8)sc7c6)c6ccccc6-c6ccccc65)cc4s3)ccc2c1` [Compound 8] it is “A (50% by mass or more of an aromatic ring-containing compound were dissolved in PGMEA)”.
The entry for `C=CC(=O)OCCOc1ccc(C2(c3ccc4sc(-c5ccccc5)nc4c3)c3ccccc3-c3cc(OCCOC(=O)C=C)ccc32)cc1` (stereo not drawn) [Compound F] is “B (30% by mass or more and less than 50% by mass of an aromatic ring-containing compound were dissolved in PGMEA)”.
For the compound `C=CC(=O)OCCOc1ccc(-c2ccc3nc(C4(c5nc6ccc(-c7ccc(OCCOC(=O)C=C)cc7)cc6s5)c5ccccc5-c5cc6ccccc6cc54)sc3c2)cc1` [Compound 4], the Solvent solubility evaluation entry was “A (50% by mass or more of an aromatic ring-containing compound were dissolved in PGMEA)”.
The entry for `C=CC(=O)OCCOc1ccc(-c2ccc(C3(c4ccc(OCCOC(=O)C=C)cc4)c4ccccc4-c4cc5sc(-c6ccccc6)nc5cc43)cc2)cc1` (stereo not drawn) [Compound C] is “B (30% by mass or more and less than 50% by mass of an aromatic ring-containing compound were dissolved in PGMEA)”; for `C=CC(=O)OCCOc1ccc(-c2nc3cc(C4(c5ccc6oc(-c7ccc(OCCOC(=O)C=C)cc7)nc6c5)c5ccccc5-c5cc6ccccc6cc54)ccc3o2)cc1` [Compound H] it is “B (30% by mass or more and less than 50% by mass of an aromatic ring-containing compound were dissolved in PGMEA)”; for `C=CC(=O)OCCOc1ccc2nc(-c3ccc(C4(c5ccc(-c6nc7ccc(OCCOC(=O)C=C)cc7s6)cc5)c5ccccc5-c5cc6ccccc6cc54)cc3)sc2c1` [Compound 6] it is “A (50% by mass or more of an aromatic ring-containing compound were dissolved in PGMEA)”.
Consider `C=CC(=O)OCCOc1ccc2nc(-c3ccc(C4(c5ccc(-c6nc7ccc(OCCOC(=O)C=C)cc7s6)cc5)c5ccccc5-c5ccccc54)cc3)sc2c1` [Compound 3], for which the Solvent solubility evaluation entry is listed as “A (50% by mass or more of an aromatic ring-containing compound were dissolved in PGMEA)”.
The value for `C=CC(=O)OCCOc1ccc2cc(-c3ccc4nc(C5(c6nc7ccc(-c8ccc9cc(OCCOC(=O)C=C)ccc9c8)cc7s6)c6ccccc6-c6cc7ccccc7cc65)sc4c3)ccc2c1` [Compound 5] was “A (50% by mass or more of an aromatic ring-containing compound were dissolved in PGMEA)”; that for `C=CC(=O)OCCOc1ccc2nc(C3(c4nc5ccc(OCCOC(=O)C=C)cc5s4)c4ccccc4-c4ccccc43)sc2c1` [Compound I] was “A (50% by mass or more of an aromatic ring-containing compound were dissolved in PGMEA)”; that for `C=CC(=O)OCCOc1ccc2cc(-c3nc4ccc(C5(c6ccc7nc(-c8ccc9cc(OCCOC(=O)C=C)ccc9c8)sc7c6)c6ccccc6-c6cc7ccccc7cc65)cc4s3)ccc2c1` [Compound 10] was “A (50% by mass or more of an aromatic ring-containing compound were dissolved in PGMEA)”.
In the case of `C=CC(=O)OCCOc1ccc2c(c1)-c1cc(OCCOC(=O)C=C)ccc1C2(c1ccc2nc(-c3ccccc3)sc2c1)c1ccc2nc(-c3ccccc3)sc2c1` [Compound B], the Solvent solubility evaluation result was “B (30% by mass or more and less than 50% by mass of an aromatic ring-containing compound were dissolved in PGMEA)”.
The entry for `C=CC(=O)OCCOc1ccc(-c2nc3cc(C(c4ccccc4)(c4ccccc4)c4ccc5sc(-c6ccc(OCCOC(=O)C=C)cc6)nc5c4)ccc3s2)cc1` [Compound A] is “B (30% by mass or more and less than 50% by mass of an aromatic ring-containing compound were dissolved in PGMEA)”; for `C=CC(=O)OCCOc1ccc(C2(c3ccc(OCCOC(=O)C=C)cc3)c3ccccc3-c3ccccc32)cc1` [Comparative Compound 1, reference compound] it is “C (5% by mass or more and less than 30% by mass of an aromatic ring-containing compound were dissolved in PGMEA)”; for `C=CC(=O)OCCOc1ccc(-c2nc3ccc(C4(c5ccc6nc(-c7ccc(OCCOC(=O)C=C)cc7)sc6c5)c5ccccc5-c5cc6ccccc6cc54)cc3s2)cc1` [Compound 9] it is “A (50% by mass or more of an aromatic ring-containing compound were dissolved in PGMEA)”.
The entry for `C=CC(=O)OCCOc1ccc2c(c1)-c1cc3ccccc3cc1C2(c1ccc(-c2nc3ccccc3s2)cc1)c1ccc2cc(OCCOC(=O)C=C)ccc2c1` (stereo not drawn) [Compound 1] is “A (50% by mass or more of an aromatic ring-containing compound were dissolved in PGMEA)”.
In the case of `C=CC(=O)OCCOc1ccc2cc(C3(c4ccc(OCCOC(=O)C=C)c(-c5nc6ccccc6s5)c4)c4ccccc4-c4cc5ccccc5cc43)ccc2c1` (stereo not drawn) [Compound E], the Solvent solubility evaluation entry is recorded as “A (50% by mass or more of an aromatic ring-containing compound were dissolved in PGMEA)”.
